Experimental data as given in patent US10112937B2, “P2X7 modulators and methods of use” (Janssen Pharmaceutica NV, priority 2013, dated 2018).

Target: human P2X7 (Homo sapiens (Human), UniProt Q99572)
Experiment: P2X7 antagonism in human PBMCs (IL-1β release after LPS + Bz-ATP, ELISA)
Format: cell-based
Details: human PBMCs, test compound 10 μM

Sequence of human P2X7 (Q99572 whole entry): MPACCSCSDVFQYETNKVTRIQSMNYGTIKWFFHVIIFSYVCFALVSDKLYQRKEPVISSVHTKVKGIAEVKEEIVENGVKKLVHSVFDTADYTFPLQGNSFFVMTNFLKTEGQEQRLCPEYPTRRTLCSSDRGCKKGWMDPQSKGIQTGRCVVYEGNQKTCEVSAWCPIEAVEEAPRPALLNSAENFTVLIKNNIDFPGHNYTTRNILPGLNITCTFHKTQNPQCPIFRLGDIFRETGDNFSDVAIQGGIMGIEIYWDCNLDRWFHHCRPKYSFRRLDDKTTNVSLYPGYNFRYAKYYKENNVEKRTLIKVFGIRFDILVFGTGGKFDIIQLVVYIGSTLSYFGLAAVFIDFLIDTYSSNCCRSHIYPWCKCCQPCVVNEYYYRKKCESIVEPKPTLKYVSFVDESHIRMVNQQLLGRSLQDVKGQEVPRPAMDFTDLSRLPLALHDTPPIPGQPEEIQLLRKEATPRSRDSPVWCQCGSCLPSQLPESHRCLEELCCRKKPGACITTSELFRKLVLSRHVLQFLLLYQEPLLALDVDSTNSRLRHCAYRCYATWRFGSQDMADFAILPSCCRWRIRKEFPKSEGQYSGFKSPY

| SMILES | PBMC 10 μM (% control) |
| --- | --- |
| C[C@H]1Cc2c(nnn2-c2ncc(F)cn2)CN1C(=O)c1ccc(F)c(Cl)c1Cl (single isomer, unassigned) [Example 215, (6S*)-5-[(2,3-Dichloro-4-fluorophenyl)carbonyl]-1-(5-fluoropyrimidin-2-yl)-6-methyl-4,5,6,7-tetrahydro-1H-[1,2,3]triazolo[4,5-c]pyridine] | 2.7 % control |
| C[C@H]1Cc2c(nnn2-c2ncc(F)cn2)CN1C(=O)c1ccc(Cl)c(F)c1Cl (single isomer, unassigned) [Example 218, (6S*)-5-[(2,4-Dichloro-3-fluorophenyl)carbonyl]-1-(5-fluoropyrimidin-2-yl)-6-methyl-4,5,6,7-tetrahydro-1H-[1,2,3]triazolo[4,5-c]pyridine] | 6.1 % control |
| C[C@@H]1c2n[nH]c(-c3ncc(F)cn3)c2CCN1C(=O)c1cccc(C(F)(F)F)c1Cl (single isomer, unassigned) [Example 223, (R*)-(2-chloro-3-(trifluoromethyl)phenyl)(3-(5-fluoropyrimidin-2-yl)-7-methyl-4,5-dihydro-2H-pyrazolo[3,4-c]pyridin-6(7H)-yl)methanone] | 1.8 % control |
| Cc1cccc(-n2nnc3c2CCN(C(=O)c2cccc(C(F)(F)F)c2Cl)[C@@H]3C)n1 (single isomer, unassigned) [Example 226, (R*)-(2-chloro-3-(trifluoromethyl)phenyl)(4-methyl-1-(6-methylpyridin-2-yl)-6,7-dihydro-1H-[1,2,3]triazolo[4,5-c]pyridin-5(4H)-yl)methanone] | 58.0 % control |
| Cc1cccc(-n2nnc3c2CCN(C(=O)c2cccc(C(F)(F)F)c2Cl)[C@H]3C)n1 (single isomer, unassigned) [Example 227, (S*)-(2-chloro-3-(trifluoromethyl)phenyl)(4-methyl-1-(6-methylpyridin-2-yl)-6,7-dihydro-1H-[1,2,3]triazolo[4,5-c]pyridin-5(4H)-yl)methanone] | −0.4 % control |
| C[C@H]1Cc2c(nnn2-c2ncc(F)cn2)CN1C(=O)c1cc(C(F)(F)F)ccc1F (single isomer, unassigned) [Example 232, (S*)-(2-fluoro-5-(trifluoromethyl)phenyl)(1-(5-fluoropyrimidin-2-yl)-6-methyl-6,7-dihydro-1H-[1,2,3]triazolo[4,5-c]pyridin-5(4H)-yl)methanone] | 7.5 % control |
| COCCn1ccc(-n2nnc3c2CCN(C(=O)c2cccc(C(F)(F)F)c2Cl)[C@H]3C)n1 (single isomer, unassigned) [Example 249, (S*)-(2-Chloro-3-(trifluoromethyl)phenyl)(1-(1-(2-methoxyethyl)-1H-pyrazol-3-yl)-4-methyl-6,7-dihydro-1H-[1,2,3]triazolo[4,5-c]pyridin-5(4H)-yl)methanone] | 5.1 % control |
| Cc1ccc(-n2nnc3c2CCN(C(=O)c2cccc(C(F)(F)F)c2Cl)[C@@H]3C)nc1 (single isomer, unassigned) [Example 255, (R*)-(2-chloro-3-(trifluoromethyl)phenyl)(4-methyl-1-(5-methylpyridin-2-yl)-6,7-dihydro-1H-[1,2,3]triazolo[4,5-c]pyridin-5(4H)-yl)methanone] | −5.5 % control |
| C[C@H]1c2nnn(-c3ncccn3)c2CCN1C(=O)c1cccc(C(F)(F)F)c1F (single isomer, unassigned) [Example 270, (S*)-(2-fluoro-3-(trifluoromethyl)phenyl)(4-methyl-1-(pyrimidin-2-yl)-6,7-dihydro-1H-[1,2,3]triazolo[4,5-c]pyridin-5(4H)-yl)methanone] | 47.9 % control |
| Cc1cccnc1-n1nnc2c1CCN(C(=O)c1cccc(C(F)(F)F)c1Cl)[C@@H]2C (single isomer, unassigned) [Example 291, (R*)-(2-chloro-3-(trifluoromethyl)phenyl)(4-methyl-1-(3-methylpyridin-2-yl)-6,7-dihydro-1H-[1,2,3]triazolo[4,5-c]pyridin-5(4H)-yl)methanone] | −7.1 % control |
| CCc1ccnc(-n2nnc3c2CCN(C(=O)c2cccc(C(F)(F)F)c2Cl)[C@@H]3C)n1 (single isomer, unassigned) [Example 294, (R*)-(2-chloro-3-(trifluoromethyl)phenyl)(1-(4-ethylpyrimidin-2-yl)-4-methyl-6,7-dihydro-1H-[1,2,3]triazolo[4,5-c]pyridin-5(4H)-yl)methanone] | −8.1 % control |
| Cc1nc(-n2nnc3c2CCN(C(=O)c2cccc(C(F)(F)F)c2Cl)[C@@H]3C)ncc1F (single isomer, unassigned) [Example 305, (R*)-(2-chloro-3-(trifluoromethyl)phenyl)(1-(5-fluoro-4-methylpyrimidin-2-yl)-4-methyl-6,7-dihydro-1H-[1,2,3]triazolo[4,5-c]pyridin-5(4H)-yl)methanone] | 0.9 % control |

The next lines start with the values.

| PBMC 10 μM (% control) | SMILES |
| --- | --- |
| −9.6 % control | CCOc1cccnc1-n1nnc2c1CCN(C(=O)c1cccc(C(F)(F)F)c1Cl)[C@@H]2C (single isomer, unassigned) [Example 316, (R*)-(2-chloro-3-(trifluoromethyl)phenyl)(1-(3-ethoxypyridin-2-yl)-4-methyl-6,7-dihydro-1H-[1,2,3]triazolo[4,5-c]pyridin-5(4H)-yl)methanone] |
| 4.8 % control | CCOc1cccnc1-n1nnc2c1CCN(C(=O)c1cccc(C(F)(F)F)c1Cl)[C@H]2C (single isomer, unassigned) [Example 317, (S*)-(2-chloro-3-(trifluoromethyl)phenyl)(1-(3-ethoxypyridin-2-yl)-4-methyl-6,7-dihydro-1H-[1,2,3]triazolo[4,5-c]pyridin-5(4H)-yl)methanone] |
| 77.7 % control | C[C@@H]1Cc2c(nnn2-c2ccn[nH]2)CN1C(=O)c1cccc(C(F)(F)F)c1F (single isomer, unassigned) [Example 348, (R*)-(2-fluoro-3-(trifluoromethyl)phenyl)(6-methyl-1-(1H-pyrazol-5-yl)-6,7-dihydro-1H-[1,2,3]triazolo[4,5-c]pyridin-5(4H)-yl)methanone] |
| 16.2 % control | C[C@@H]1Cc2c(nnn2-c2ccn[nH]2)CN1C(=O)c1cccc(C(F)(F)F)c1Cl (single isomer, unassigned) [Example 350, (R*)-(2-chloro-3-(trifluoromethyl)phenyl)(6-methyl-1-(1H-pyrazol-5-yl)-6,7-dihydro-1H-[1,2,3]triazolo[4,5-c]pyridin-5(4H)-yl)methanone] |
| 0.6 % control | C[C@H]1Cc2c(nnn2-c2ccn[nH]2)CN1C(=O)c1cccc(C(F)(F)F)c1Cl (single isomer, unassigned) [Example 351, (S*)-(2-chloro-3-(trifluoromethyl)phenyl)(6-methyl-1-(1H-pyrazol-5-yl)-6,7-dihydro-1H-[1,2,3]triazolo[4,5-c]pyridin-5(4H)-yl)methanone] |
| 107.5 % control | Cc1cc(-n2nnc3c2CCN(C(=O)c2cc(C(F)(F)F)ccc2Cl)[C@@H]3C)ncc1F (single isomer, unassigned) [Example 353, (R*)-(2-chloro-5-(trifluoromethyl)phenyl)(1-(5-fluoro-4-methylpyridin-2-yl)-4-methyl-6,7-dihydro-1H-[1,2,3]triazolo[4,5-c]pyridin-5(4H)-yl)methanone] |
| 83.4 % control | Cc1cc(-n2nnc3c2CCN(C(=O)c2cc(C(F)(F)F)ccc2Cl)[C@H]3C)ncc1F (single isomer, unassigned) [Example 354, (S*)-(2-chloro-5-(trifluoromethyl)phenyl)(1-(5-fluoro-4-methylpyridin-2-yl)-4-methyl-6,7-dihydro-1H-[1,2,3]triazolo[4,5-c]pyridin-5(4H)-yl)methanone] |
| −8.2 % control | Cc1ccnc(-n2nnc3c2CCN(C(=O)c2ccnc(C(F)(F)F)c2Cl)[C@@H]3C)c1 (single isomer, unassigned) [Example 359, (R*)-(3-chloro-2-(trifluoromethyl)pyridin-4-yl)(4-methyl-1-(4-methylpyridin-2-yl)-6,7-dihydro-1H-[1,2,3]triazolo[4,5-c]pyridin-5(4H)-yl)methanone] |
| −7.1 % control | Cc1ccnc(-n2nnc3c2CCN(C(=O)c2ccnc(C(F)(F)F)c2Cl)[C@H]3C)c1 (single isomer, unassigned) [Example 360, (S*)-(3-chloro-2-(trifluoromethyl)pyridin-4-yl)(4-methyl-1-(4-methylpyridin-2-yl)-6,7-dihydro-1H-[1,2,3]triazolo[4,5-c]pyridin-5(4H)-yl)methanone] |
| 108.2 % control | Cc1cc(-n2nnc3c2CCN(C(=O)c2ccc(Cl)c(C(F)(F)F)c2)[C@@H]3C)ncc1F (single isomer, unassigned) [Example 365, (R*)-(4-chloro-3-(trifluoromethyl)phenyl)(1-(5-fluoro-4-methylpyridin-2-yl)-4-methyl-6,7-dihydro-1H-[1,2,3]triazolo[4,5-c]pyridin-5(4H)-yl)methanone] |
| 2.0 % control | Cc1cc(-n2nnc3c2CCN(C(=O)c2ccc(Cl)c(C(F)(F)F)c2)[C@H]3C)ncc1F (single isomer, unassigned) [Example 366, (S*)-(4-chloro-3-(trifluoromethyl)phenyl)(1-(5-fluoro-4-methylpyridin-2-yl)-4-methyl-6,7-dihydro-1H-[1,2,3]triazolo[4,5-c]pyridin-5(4H)-yl)methanone] |
| 74.5 % control | Cc1cc(-n2nnc3c2CCN(C(=O)c2ccnc(C(F)(F)F)c2F)[C@H]3C)ncc1F (single isomer, unassigned) [Example 369, (S*)-(3-fluoro-2-(trifluoromethyl)pyridin-4-yl)(1-(5-fluoro-4-methylpyridin-2-yl)-4-methyl-6,7-dihydro-1H-[1,2,3]triazolo[4,5-c]pyridin-5(4H)-yl)methanone] |
| 96.3 % control | Cc1ccnc(-n2nnc3c2CCN(C(=O)c2cccc(OC(F)(F)F)c2)[C@@H]3C)c1 (single isomer, unassigned) [Example 376, (R*)-(4-methyl-1-(4-methylpyridin-2-yl)-6,7-dihydro-1H-[1,2,3]triazolo[4,5-c]pyridin-5(4H)-yl)(3-(trifluoromethoxy)phenyl)methanone] |
